Reference: EP4140481A1, “PROTEIN-OLIGOMER BINDING AGENTS AND THERAPEUTIC USES THEREOF” (Galyan Bio, Inc., priority 2021, dated 2023)

Target: T1, mHTT (Homo sapiens, UniProt P42858)
T1 construct: host or cells: ST HDH Q111/111 mouse striatal cell line (knock-in locus)
Assay: mHTT levels in striatal cells (immunocytochemistry)
Assay type: cell-based, mouse
Settings: for remaining activity at 10 µM: read-out: mHTT after treatment
Procedure: (§1) Staining - Cells were permeabilized with 0.3% Triton X-100 in 4 °C PBS (pH 7.4 from ThermoFisher) for 10 minutes. Then the cells were washed two times with 4 °C PBS. Subsequently, cells are blocked with 3% NGS (normal goat serum from Thermo Fisher) in 4 ° C PBS for 1 hour. Cells were incubated with primary antibodies in blocking buffer (PBS, 3% NGS, 0.02% NaN3) over night at 4 °C. Primary antibodies were mouse antipolyglutamine monoclonal antibody 3B5H10 (Sigma-Aldrich) at 1:250 dilution and Guinea Pig anti-MAP2 polyclonal antibody (Synaptic Systems) at 1:500 dilution. 3B5H10 binds to diffuse mHTT. Diffuse mHTT is a monomeric and small oligomeric mHTT. Diffuse mHTT is correlated to pathological parameters in Huntington's disease. Compounds that bind the mHTT will reduce the levels of diffuse mHTT detected.
Cells were washed 2 times with 4 °C PBS, and then incubated with secondary antibodies at 1:2000 dilution in blocking buffer for 1hour at room temperature. […] Cells were washed 2 times with 4 °C PBS, and then the nuclei were counterstain with DAPI (ThermoFisher) for 10 min at room temperature in the dark. Cells were washed 2 times with 4 °C PBS, and then 4 °C PBS was added to cells and then images were acquired. […] Table 11: Antibodies Used in Immunocytochemistry Studies
Fluorescence Imaging - Imaging sessions were performed on a confocal microscope system (Carl Zeiss Microscopy) equipped with a dual spinning disk unit (Yokogawa). All components of the imaging system were controlled via the ZEN 2 software suite (Carl Zeiss Microscopy). The laser lines used were 405 nm, 488 nm and 639 nm to excite DAPI or the respective fluorophores. […] Nested t test was performed to calculate the significance amongst repeated measurements using GraphPad Prism software.
as §1, with “For LC3 staining primary antibodies were mouse anti-LC3 mab (5F10) (nanoTools) at 1:500 dilution” for “3B5H10 binds to diffuse mHTT. Diffuse mHTT is a monomeric”, “Guinea Pig anti-MAP2 polyclonal antibody (Synaptic Systems) at 1:500 dilution.” for “small oligomeric mHTT. Diffuse mHTT is correlated to pathological parameters in Huntington's disease. Compounds that bind the mHTT will reduce the levels of diffuse mHTT detected.”
Cells were washed 2 times with 4 °C PBS, and then incubated with secondary antibodies at 1:2000 dilution in blocking buffer for 1hour at room temperature. […] Cells were washed 2 times with 4 °C PBS, and then the nuclei were counterstain with DAPI (ThermoFisher) for 10 min at room temperature in the dark. Cells were washed 2 times with 4 °C PBS, and then 4 °C PBS was added to cells and then images were acquired.
EC 50 value was determined with non-linear regression.

[1] = STHdh 111/111, 10 µM, 3 hours heat shock, 48 hours treatment, percentage in comparison to untreated STHdh 111/111, 3B5H10 antibody

T1 sequence (P42858 with tags, fused parts or gaps with the stated changes): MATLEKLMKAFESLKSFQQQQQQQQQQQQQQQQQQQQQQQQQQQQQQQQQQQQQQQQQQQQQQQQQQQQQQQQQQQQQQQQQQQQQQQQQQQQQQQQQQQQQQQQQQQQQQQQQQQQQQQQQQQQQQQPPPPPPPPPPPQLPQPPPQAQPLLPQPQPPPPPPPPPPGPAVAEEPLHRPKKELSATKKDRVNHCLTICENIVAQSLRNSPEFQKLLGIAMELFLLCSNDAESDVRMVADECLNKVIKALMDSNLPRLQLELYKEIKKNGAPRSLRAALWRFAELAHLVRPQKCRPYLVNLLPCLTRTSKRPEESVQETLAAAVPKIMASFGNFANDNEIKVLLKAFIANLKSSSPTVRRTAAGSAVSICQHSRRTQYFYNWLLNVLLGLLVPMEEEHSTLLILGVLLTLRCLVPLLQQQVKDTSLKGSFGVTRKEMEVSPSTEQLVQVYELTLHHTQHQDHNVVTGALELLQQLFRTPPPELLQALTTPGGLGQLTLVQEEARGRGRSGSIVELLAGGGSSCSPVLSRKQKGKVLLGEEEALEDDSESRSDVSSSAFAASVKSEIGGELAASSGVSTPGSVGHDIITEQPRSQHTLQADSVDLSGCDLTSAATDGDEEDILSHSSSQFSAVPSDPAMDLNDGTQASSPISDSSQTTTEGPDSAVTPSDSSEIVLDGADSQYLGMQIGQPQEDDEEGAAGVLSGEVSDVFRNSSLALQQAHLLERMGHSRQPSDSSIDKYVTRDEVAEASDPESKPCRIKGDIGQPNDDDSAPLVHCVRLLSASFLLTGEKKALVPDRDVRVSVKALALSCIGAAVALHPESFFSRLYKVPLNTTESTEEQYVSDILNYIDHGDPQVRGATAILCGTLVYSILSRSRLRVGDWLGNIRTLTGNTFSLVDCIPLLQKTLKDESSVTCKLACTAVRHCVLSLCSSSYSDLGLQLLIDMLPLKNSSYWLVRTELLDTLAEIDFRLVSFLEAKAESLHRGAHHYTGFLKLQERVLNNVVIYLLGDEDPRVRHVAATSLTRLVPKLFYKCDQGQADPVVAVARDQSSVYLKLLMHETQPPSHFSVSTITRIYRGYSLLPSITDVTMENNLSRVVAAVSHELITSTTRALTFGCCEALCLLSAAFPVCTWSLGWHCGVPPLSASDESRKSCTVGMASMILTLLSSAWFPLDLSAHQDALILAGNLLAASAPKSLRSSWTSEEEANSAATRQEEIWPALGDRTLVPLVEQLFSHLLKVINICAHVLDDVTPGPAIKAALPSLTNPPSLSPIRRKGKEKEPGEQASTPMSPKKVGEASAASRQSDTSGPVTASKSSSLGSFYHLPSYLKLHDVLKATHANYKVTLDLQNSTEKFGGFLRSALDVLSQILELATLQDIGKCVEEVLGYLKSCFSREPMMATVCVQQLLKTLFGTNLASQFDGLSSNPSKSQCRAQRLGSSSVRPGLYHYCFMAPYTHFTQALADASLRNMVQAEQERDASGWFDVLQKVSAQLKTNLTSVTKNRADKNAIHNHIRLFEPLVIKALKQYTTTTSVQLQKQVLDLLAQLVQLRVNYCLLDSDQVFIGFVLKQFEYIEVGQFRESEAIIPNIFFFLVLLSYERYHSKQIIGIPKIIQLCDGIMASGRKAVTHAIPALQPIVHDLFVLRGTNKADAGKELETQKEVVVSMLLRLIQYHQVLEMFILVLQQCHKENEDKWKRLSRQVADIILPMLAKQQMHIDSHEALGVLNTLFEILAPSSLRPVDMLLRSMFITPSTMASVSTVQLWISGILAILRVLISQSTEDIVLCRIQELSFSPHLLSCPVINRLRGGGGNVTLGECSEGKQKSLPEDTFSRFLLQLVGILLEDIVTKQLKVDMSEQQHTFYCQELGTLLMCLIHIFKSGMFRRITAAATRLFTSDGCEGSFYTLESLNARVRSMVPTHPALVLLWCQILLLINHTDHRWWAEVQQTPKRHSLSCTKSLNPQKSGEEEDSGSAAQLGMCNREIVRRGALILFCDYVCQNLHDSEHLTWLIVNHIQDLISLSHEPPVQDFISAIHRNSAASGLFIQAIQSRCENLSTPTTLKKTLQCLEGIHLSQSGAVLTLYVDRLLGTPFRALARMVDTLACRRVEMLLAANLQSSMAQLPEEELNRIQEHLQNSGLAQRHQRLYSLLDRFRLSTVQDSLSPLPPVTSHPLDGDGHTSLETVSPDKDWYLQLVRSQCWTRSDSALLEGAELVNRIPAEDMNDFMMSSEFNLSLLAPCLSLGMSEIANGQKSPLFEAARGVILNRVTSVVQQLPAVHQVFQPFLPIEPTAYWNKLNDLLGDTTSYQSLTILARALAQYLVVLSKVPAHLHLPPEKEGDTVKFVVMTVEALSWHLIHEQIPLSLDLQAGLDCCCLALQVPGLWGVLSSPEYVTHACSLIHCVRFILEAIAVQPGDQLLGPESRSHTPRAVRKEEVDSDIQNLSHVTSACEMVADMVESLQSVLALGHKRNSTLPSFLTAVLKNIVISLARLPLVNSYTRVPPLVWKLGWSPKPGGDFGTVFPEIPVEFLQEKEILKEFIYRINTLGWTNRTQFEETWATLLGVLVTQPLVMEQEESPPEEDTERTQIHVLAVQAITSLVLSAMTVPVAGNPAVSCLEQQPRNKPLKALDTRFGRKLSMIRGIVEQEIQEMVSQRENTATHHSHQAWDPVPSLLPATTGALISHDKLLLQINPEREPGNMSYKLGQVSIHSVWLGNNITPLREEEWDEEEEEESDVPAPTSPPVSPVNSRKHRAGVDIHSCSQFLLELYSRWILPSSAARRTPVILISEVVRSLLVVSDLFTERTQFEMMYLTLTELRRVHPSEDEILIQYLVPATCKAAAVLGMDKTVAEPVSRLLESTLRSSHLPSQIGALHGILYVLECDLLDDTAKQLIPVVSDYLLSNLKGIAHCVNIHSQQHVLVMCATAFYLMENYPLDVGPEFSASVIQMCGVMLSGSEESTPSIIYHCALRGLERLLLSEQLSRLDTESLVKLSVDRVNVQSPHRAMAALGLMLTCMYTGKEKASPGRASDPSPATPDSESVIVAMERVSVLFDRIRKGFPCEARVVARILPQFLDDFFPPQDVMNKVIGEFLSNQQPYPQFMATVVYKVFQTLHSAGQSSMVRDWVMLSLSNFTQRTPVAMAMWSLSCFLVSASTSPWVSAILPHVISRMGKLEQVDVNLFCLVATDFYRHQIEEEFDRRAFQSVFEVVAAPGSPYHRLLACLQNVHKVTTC

Which remaining activity at 10 µM [1] does the source give for CCc1c(C)[nH]c2ccc(C(=O)NCCN(C)C)cc12 [Compound 1] here?
The remaining activity at 10 µM was 30%.

Which remaining activity at 10 µM [1] does the source give for Cc1[nH]c2ccc(C(=O)NCCN3CCOCC3)cc2c1C [Compound 2, 2,3-dimethyl-N-(2-morpholinoethyl)-1H-indole-5-carboxamide] here?
The remaining activity at 10 µM was 32%.

For CN(C)CCNC(=O)c1ccc2[nH]c3c(c2c1)CCCC3 [Compound 3], which remaining activity at 10 µM [1] is on record?
The remaining activity at 10 µM was 33%.

Which remaining activity at 10 µM [1] does the source give for CN(C)CCNC(=O)c1ccc2[nH]c3c(c2c1)CCC3 [Compound 5] here?
Its remaining activity at 10 µM is 36%.

How did the remaining activity at 10 µM [1] turn out when O=C(NCCN1CCOCC1)c1ccc2[nH]c3c(c2c1)CCC3 [Compound 8] was run?
Its remaining activity at 10 µM is 38%.

With CN1CCN(CCNC(=O)c2ccc3[nH]c4c(c3c2)CCC4)CC1 [Compound 10] as the compound, how does the remaining activity at 10 µM [1] read?
Its remaining activity at 10 µM is 40%.

How did the remaining activity at 10 µM [1] turn out when CCc1[nH]c2ccc(C(=O)NCCN3CCCC3)cc2c1C [Compound 11] was run?
The remaining activity at 10 µM was 40%.

O=C(NCCN1CCOCC1)c1ccc2[nH]c3c(c2c1)CCCC3 [Compound 12] was tested. Which remaining activity at 10 µM [1] did it give?
The remaining activity at 10 µM was 40%.

O=C(NCCN1CCCC1)c1ccc2[nH]c3c(c2c1)CCCC3 [Compound 13] was tested. Which remaining activity at 10 µM [1] did it give?
The remaining activity at 10 µM was 41%.

CCc1c(C)[nH]c2ccc(C(=O)NCCN3CCN(C)CC3)cc12 [Compound 15] was tested. Which remaining activity at 10 µM [1] did it give?
The remaining activity at 10 µM was 42%.

With O=C(NCCN1CCCCC1)c1ccc2[nH]c3c(c2c1)CCCC3 [Compound 16] as the compound, how does the remaining activity at 10 µM [1] read?
Its remaining activity at 10 µM is 43%.

Cc1[nH]c2ccc(C(=O)NCCN3CCC3)cc2c1C [Compound 17, N-(2-(Azetidin-1-yl)ethyl)-2,3-dimethyl-1H-indole-5-carboxamide] was tested. Which remaining activity at 10 µM [1] did it give?
The remaining activity at 10 µM was 44%.

Which mHTT after treatment [1] does the source give for CCN(CC)CCNC(=O)c1ccc2c(c1)c(C)c(C)n2C [Compound 19, N-(2-(Diethylamino)ethyl)-1,2,3-dimethyl-1H-indole-5-carboxamide] here?
Its mHTT after treatment is 45%.

Which remaining activity at 10 µM [1] does the source give for O=C(NCCN1CCC1)c1ccc2[nH]c3c(c2c1)CCCC3 [Compound 20] here?
The remaining activity at 10 µM was 45%.

What about the “mHTT reduction with MG132 in comparison to without MG132” value (STHdh 111/111 striatal cells) of the same compound?
Its value is “less”.

How did the remaining activity at 10 µM [1] turn out when CCN(CC)CCNC(=O)c1ccc2[nH]c(C)c(C)c2c1 [Compound 21, N-(2-(Diethylamino)ethyl)-2,3-dimethyl-1H-indole-5-carboxamide] was run?
Its remaining activity at 10 µM is 46%.

Which remaining activity at 10 µM [1] does the source give for CCc1[nH]c2ccc(C(=O)NCCN3CCCCC3)cc2c1C [Compound 23] here?
The remaining activity at 10 µM was 47%.

Which remaining activity at 10 µM [1] does the source give for Cc1c(C)n(C)c2ccc(C(=O)NCCN3CCN(C)C(C)C3)cc12 (stereo not drawn) [Compound 25, N-(2-(3,4-Dimethylpiperazin-1-yl)ethyl)-1,2,3-trimethyl-1H-indole-5-carboxamide] here?
The remaining activity at 10 µM was 48%.

Which remaining activity at 10 µM [1] does the source give for CCN(CC)CCNC(=O)c1ccc2[nH]c3c(c2c1)CCC3 [Compound 27] here?
Its remaining activity at 10 µM is 50%.

For Cc1[nH]c2ccc(C(=O)NCCN3CCCC3)cc2c1C [Compound 29, 2,3-Dimethyl-N-(2-(pyrrolidin-1-yl)ethyl)-1H-indole-5-carboxamide], which remaining activity at 10 µM [1] is on record?
Its remaining activity at 10 µM is 51%.

With CCc1[nH]c2ccc(C(=O)NCCN3CCOCC3)cc2c1C [Compound 30] as the compound, how does the remaining activity at 10 µM [1] read?
Its remaining activity at 10 µM is 51%.

How did the remaining activity at 10 µM [1] turn out when Cc1c(C)n(C)c2ccc(C(=O)NCCN3CCCCC3)cc12 [Compound 31, 1,2,3-Trimethyl-N-(2-(piperidin-1-yl)ethyl)-1H-indole-5-carboxamide] was run?
The remaining activity at 10 µM was 52%.

With CCc1c(C)[nH]c2ccc(C(=O)NCCN3CCOCC3)cc12 [Compound 32] as the compound, how does the remaining activity at 10 µM [1] read?
Its remaining activity at 10 µM is 53%.

With CCc1c(C)[nH]c2ccc(C(=O)NCCN3CCC3)cc12 [Compound 33] as the compound, how does the remaining activity at 10 µM [1] read?
Its remaining activity at 10 µM is 55%.

With CN1CCN(CCNC(=O)c2ccc3[nH]c4c(c3c2)CCCC4)CC1 [Compound 36] as the compound, how does the remaining activity at 10 µM [1] read?
Its remaining activity at 10 µM is 56%.

For CCc1[nH]c2ccc(C(=O)NCCN(C)C)cc2c1C [Compound 37], which remaining activity at 10 µM [1] is on record?
Its remaining activity at 10 µM is 56%.

How did the remaining activity at 10 µM [1] turn out when CCc1[nH]c2ccc(C(=O)NCCN(CC)CC)cc2c1C [Compound 38] was run?
The remaining activity at 10 µM was 57%.

How did the remaining activity at 10 µM [1] turn out when Cc1c(C)n(C)c2ccc(C(=O)NCCN(C)C)cc12 [Compound 41, N-(2-(Dimethylamino)ethyl)-1,2,3-trimethyl-1H-indole-5-carboxamide] was run?
Its remaining activity at 10 µM is 65%.

Which remaining activity at 10 µM [1] does the source give for O=C(NCCN1CCC1)c1ccc2[nH]c3c(c2c1)CCC3 [Compound 42] here?
Its remaining activity at 10 µM is 65%.

For CC(C)N(CCNC(=O)c1ccc2[nH]ccc2c1)C(C)C [Compound 43], which remaining activity at 10 µM [1] is on record?
Its remaining activity at 10 µM is 65%.
